Laboratory results as given in patent US4183931A, “2-Ketoalkyl-4(3H)-quinazolinones” (Research Corporation, priority 1977, dated 1980).

How the values were obtained:
[1] = NINCDS Maximal Electroshock Seizure Test (MES); type: in vivo, mice; details: for minimal effective dose: read-out: MES: dosage level that elicited protection
Experimental: (§1) 1. Neurological Activity Tests. […] Compounds were evaluated for anticonvulsant activity in two seizure models, the maximal electroshock seizure (MES) test and the subcutaneous pentylenetetrazol (Metrazol) seizure threshold (scMet) test.
The Maximal Electroshock Seizure Test was performed according to the method described by Swinyard and coworkers,* wherein a drop of 0.9% saline is instilled in each eye prior to application of corneal electrodes. Seizures are elicited with a 50 Hz alternating current of 50 mA (5 to 7 times that necessary to elicit minimal electroshock seizures) delivered for 0.2 sec via corneal electrodes. This stimulus will produce a maximal seizure in all normal mice. The maximal seizure typically consists of a short period of initial tonic flexion and a prolonged period of hind limb tonic extension, followed by terminal clonus. The seizure lasts about 22 seconds. Abolition of the hind limb tonic extensor component of the seizure is defined as protection and indicates anticonvulsant activity in the test compound.
(§2) The ability of a compound to prevent maximal electroshock seizures is believed to correlate with its ability to prevent the spread of seizure discharge through neural tissue. Activity against maximal electroshock seizures is thought to indicate potential efficacy in the treatment of major motor (grand mal) seizures. […] Selective action in the test is believed to indicate potential efficacy against absence (petit mal) seizures.
(§3) As described earlier, the MES, scMet and Rotorod tests were performed one-half hour and four hours after administration of each compound.
(§4) In the Secondary Evaluation, median effective doses (ED50) are determined in the MES, scMet and Rotorod assays using the procedures defined in Pharmacology, 95, 99-113 (1949).
(§5) Separate groups of animals are used for each time period. The times of peak toxic and anticonvulsant effect are taken from the resulting graph of percent of animals responding vs. time, and the determinations of median effective doses are performed at those times.

[2] = NINCDS rotorod ataxia test (minimal neurotoxicity); type: in vivo, mice
Experimental: (§6) 1. Neurological Activity Tests. The biological testing program is designed to evaluate the following four aspects of drug action: (1) the existence and specificity of anticonvulsant activity; (2) the toxicity, particularly to the central nervous system; and, if the results of (1) and (2) are favorable, (3) the potency and protective index, a comparison between toxic and effective dose and (4) the time course of activity. Compounds were evaluated for anticonvulsant activity in two seizure models, the maximal electroshock seizure (MES) test and the subcutaneous pentylenetetrazol (Metrazol) seizure threshold (scMet) test.
Central nervous system toxicity was evaluated in the rotorod ataxia test. This test is designed to detect minimal neurotoxicity. The animal is placed on a 1-inch diameter knurled plastic rod rotating at 6 rpm. Normal mice can remain indefinitely on a rod rotating at this speed. Neurological deficit is defined as the failure of the animal to remain on the rod for at least 1 minute. This test has a clear end-point, is quantifiable and correlates well with the clinical assessment of minimal toxicity.
(§7) Specific anticonvulsant evaluations performed by NINCDS using MES, scMet and Rotorod assays are presented in Tables III & IV for fourteen new compounds as well as several known compounds. Table III centers attention on 2-substituted-3-o-tolyl-4-(3H)-quinazolinones while Table IV includes the findings for various other 2,3-disubstituted-4(3H)-quinazolinones. As described earlier, the MES, scMet and Rotorod tests were performed one-half hour and four hours after administration of each compound. The tables identify the dosage level that elicited a positive result, such as protection against MES and scMet induced seizures, or loss of balance on the rotorod.
In the Secondary Evaluation, median effective doses (ED50) are determined in the MES, scMet and Rotorod assays using the procedures defined in Pharmacology, 95, 99-113 (1949). In addition, each compound's anticonvulsant activity and neurotoxicity over time are determined by measuring the effect of an intraperitoneally administered estimated median effective dose on maximal electroshock seizures and rotorod performance at intervals of 1/2, 1, 2, 3, 4, 6 and 8 hours.
as §5

[3] = NINCDS primary evaluation, overall classification; type: in vivo, mice; set-up: key to NINCDS Classification: III: did not exhibit activity in any of the 3 categories at dose levels of 300 mg/kg; details: primary evaluation
Experimental: as §6, §7

[4] = NINCDS Subcutaneous Pentylenetetrazol (Metrazol) Seizure Threshold Test (scMet); type: in vivo, mice; details: for minimal effective dose: sc, read-out: scMet: dosage level that elicited protection
Experimental: as §1
Subcutaneous Pentylenetetrazol (Metrazol) Seizure Threshold Test (scMet) produces threshold (clonic) seizures. Pentylenetetrazol is administered subcutaneously as a threshold 0.5% solution (in 0.9% sodium chloride) in a loose fold of skin on the back of the neck in a dose of 85 mg/kg. […] Metrazol is given 10 minutes before the beginning of the test to allow for the delay in onset of Metrazol action. The animal is observed for 30 minutes. Failure to observe even a threshold seizure (a single episode of clonic spasms at least 5 seconds in duration) is defined as protection and indicates anticonvulsant activity in the test compound. These two methods of seizure provocation reliably elicit well-characterizied seizure phenomena.
as §2, §3, §4, §5

[5] = literature; cited from earlier work
[6] = literature; cited from earlier work; remark: listed apart in the source
[7] = NPP maximal electroshock seizure (MES) protection; type: in vivo, white male mice of the Carworth Farm Strain CF-1; details: Mus musculus, ip; conducted at 30 mg/kg i.p.
Experimental: (§8) The procedures for the determination of a neuropharmacological profile involved white male mice of the Carworth Farm Strain CF-1 weighing 18 to 22 grams. […] Intraperitoneal injections were administered in logarithmic progression and sequentially. The dose levels employed routinely were 10, 30, 100 and 300 mg/kg, using four male mice at each dose level. Since this test was conducted in a sequential manner, the first does administered was at 300 mg/kg. […] Approximately thirty-eight signs and symptoms of pharmacological activity can be identified.
(§9) Since this is a general CNS screening procedure, only peak effects were recorded. Certain measures of behavior and neurological deficit were scored in terms of intensity of effect, while most others were determined on an all or none basis. Thus, in scoring measures which were normally present, e.g., spontaneous activity and skin color, an increase in score from 4 to 8 was used to denote stimulation or enhancement of skin color, whereas a decrease in score from 4 to 0 indicated depression or cyanosis. For scoring measures normally absent, e.g., depression, righting reflex and ataxia, activity was reflected as an increase in score from 0 to 8. The 0 to 8 scale was rounded off so that the actual ratings are only 0, 2, 4, 6 and 8. The compounds were also evaluated for anticonvulsant activity by using the maximal electroshock seizure (MES) test. In the MES study, four mice were dosed intraperitoneally at 100 mg/kg and challenged thirty minutes later with 50 mA, 0.2 second duration of electroshock. A protection ratio (number of mice protected from tonic extension .div. number of mice tested) was then established.
(§10) Scores for behavioral symptoms, including depression, righting reflex and ataxia, are the actual numbers reported. Protection against MES is reported as a percentage. Since four animals were involved in this test, the findings are 0% for none protected, 25% for one out of four, etc. […] In order to maintain reasonable uniformity in the reporting of results, each entry corresponds to a dosage level of 100 mg/kg. Any variations from that dosage are indicated.

[8] = NPP lethality (estimated LD50); details: mouse, in vivo, ip
Experimental: as §8
(§11) The animals were observed continously for one hour and, if no signs of pharmacological or toxicological activity were present at the end of the first hour, they were intermittently checked for activity every fifteen minutes thereafter for two consecutive hours. […] The observation period began immediately following the injection and the animals were then continuously observed for three hours and intermittently checked thereafter for forty-eight hours. The animals were observed and signs and symptoms of pharmacological activity were recorded continuously until no further symptoms developed and until the symptoms that appeared were no longer present. […] In such instances, the animals were observed beyond this period until they returned to normal. Routinely, the number of animals alive at the end of the forty-eight hour observation period was recorded and the LD50 estimated.
as §10

[9] = Neuropharmacological Profile (NPP): general CNS observational screen (depression, righting reflex, ataxia); details: i.p., mice, score 0-8
Experimental: Representative compounds according to the present invention were tested for central nervous system activity by Pharmakon Laboratories of Scranton, Pennsylvania. The battery of general observational procedures used is referred to herein as a Neuropharmacological Profile (NPP). Additionally, representative compounds were tested in the Anticonvulsant Screening Project of the National Institutes of Neurological and Communicative Disorders and Stroke (NINCDS) at the University of Utah under the direction of Dr. Ewart A. Swinyard.
as §8, §11
The animals are free to move about for evaluation of spatial orientation, alertness and spontaneous motor activity.
as §9
At the termination of the test, the results were recorded and tabulated.
as §10

[10] = literature, mice; cited from earlier work
[11] = literature; cited from earlier work; remark: listed apart in the source
[12] = Mus musculus, ip, after 4 hr (value in parentheses)
[13] = after 4 hr (value in parentheses)
[14] = Mus musculus, after 4 hr (value in parentheses)
[15] = Mus musculus, ip, secondary evaluation, at time of peak effect
[16] = at 30 mg/kg (value in parentheses)

SMILES | minimal effective dose [1, 12] [mg/kg] | Rotorod: dosage level that elicited loss of balance ([2]; after 0.5 hr) [mg/kg] | Rotorod: dosage level that elicited loss of balance [2, 13] [mg/kg] | toxicity remark (footnote a to NINCDS classification) [3] | minimal effective dose ([4]; Mus musculus, after 0.5 hr) [mg/kg] | minimal effective dose [4, 14] [mg/kg] | sedative-hypnotic / hypnotic / depressant activity (in words) [6] | other results
Cc1ccccc1-n1c(C)nc2cc(N)ccc2c1=O [H and 7-amino, reference compound] | 100 | 100 | 300 | Extremely toxic | 100 | 100 | – | minimal effective dose ([1]; Mus musculus, ip, after 0.5 hr): 100 mg/kg
Cc1nc2ccccc2c(=O)n1-c1ccccc1Cl [mecloqualone, 2-methyl-3-o-chlorophenyl-4(3H)-quinazolinone, reference compound] | 300 | 30 | 100 | Extremely toxic | 30 | 100 | – | anticonvulsant activity (in words) [5]: better anticonvulsant agent than methaqualone; effectiveness in protection against scMet induced seizures, comparison methaqualone/mecloqualone ([4]; primary evaluation): more effective in protection against scMet induced seizures
Cc1ccccc1N1C(=O)c2ccccc2NC1C (centres unmarked) [1,2-dihydro derivative] | – | – | – | – | – | – | abolishes depressant activity | –
CCN(CC)c1ccc(-n2c(C)nc3ccccc3c2=O)cc1 [2-methyl-3-(p-diethylaminophenyl)-4(3H)-quinazolinone] | – | – | – | – | – | – | equal hypnotic activity to methaqualone | –
Cc1ccccc1-n1c(C)nc2c(c1=O)CCCC2 | – | – | – | – | – | – | lack of hypnotic activity | –
Cc1ccccc1-n1c(C)nc2ccccc2c1=O [methaqualone, 2-methyl-3-o-tolyl-4(3H)-quinazolinone, reference compound] | 300 | 100 | 300 | – | 100 | 300 | comparable to short-acting barbiturates in terms of sedative-hypnotic activity | minimal effective dose ([1]; Mus musculus, ip, after 0.5 hr): 100 mg/kg; ED50 [1, 15]: 52 mg/kg; activity in the MES test, comparison methaqualone/mecloqualone ([1]; primary evaluation): more active in the MES test; responders at 30 mg/kg [7]: 0%; LD50 at 48 h [8]: > 562 mg/kg; TD50 ([2]; mouse, in vivo, ip, secondary evaluation, at time of peak effect): 55 mg/kg; CNS Depression [9, 16]: 8; prevention of pentylenetetrazol induced convulsive seizures (in words) [10]: superior to sodium phenobarbitone; ED50 [4, 15]: 33.5 mg/kg
Cc1ccccc1-n1c(CC(=O)c2ccc[n+](C)c2)nc2ccccc2c1=O [CO-3-C5 H4 N^+ CH3 I^-] | 100 | 100 | – | Extremely toxic | – | 30 | – | –
CCC1(c2ccccc2)C(=O)NC(=O)NC1=O [phenobartital] | – | – | – | – | – | – | – | protection against maximal electro-shock seizures (in words) [11]: better protector against maximal electro-shock seizures (MES) then methaqualone
O=C(Cc1nc2ccccc2c(=O)n1-c1ccccc1Cl)C(F)(F)F [IVa, 2-(3,3,3-Trifluoroacetonyl)-3-o-chlorophenyl-4(3H)-quinazolinone] | – | 300 | 300 | – | – | – | – | LD50 at 48 h [8]: 178 mg/kg; CNS Depression [9, 16]: 6; CNS Depression ([9]; at 100 mg/kg): 8; NINCDS Classification [3]: III
